Where two headings read alike, the source gives them in different places.
Key:
Format in all cases: in vivo
Rhizoctonia solani [1] = assay: Control of Rhizoctonia solani disease in tobacco (Rs-Nt); conditions: 1 μM spraying every 24 hours for one week, water control 87
Phytophthora parasitica = assay: Control of Phytophthora parasitica disease in tobacco (Pp-Nt); conditions: 1 μM spraying every 24 hours for one week, water control 91
Pratylenchus coffeae = assay: Nematode control, nodules per plant: Pratylenchus coffeae; conditions: 1 μM foliar application every 5 days, evaluation 35 days after, control 42
How it was run: (§1)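 Each compound was dissolved in ethanol, then diluted with water to 1 μM. Only the leaves were sprayed, with applications repeated every 5 days on ten plants per treatment. After 35 days, nodules per plant were quantified.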

Botrytis cinerea [2] = assay: Control of Botrytis cinerea disease in tomato (Bc-SI); conditions: 1 μM spraying every 24 hours for one week, water control 7.4
How it was run: (§2)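 Lesion diameter was the measure for Botrytis infection, percentage of leaves showing symptoms for Alternaria, and mortality rate for Nocardia. Compounds at 1 μM were sprayed daily for a week onto already inoculated plants, in groups of fifty, alongside water-treated controls.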

Meloidogyne incognita = assay: Nematode control, nodules per plant: Meloidogyne incognita; conditions: 1 μM foliar application every 5 days, evaluation 35 days after, control 34
How it was run: as §1

[3] = system: Candidatus 'Liberibacter asiaticus'; conditions: spraying every 15 days, 12 months after treatment, Citrus sinensis with HLB
Alternaria solani = assay: Control of Alternaria solani disease in tomato (As-SI); conditions: 1 μM spraying every 24 hours for one week, water control 68
How it was run: as §2

Botrytis cinerea [4] = assay: Control of Botrytis cinerea disease in Arabidopsis (Bc-At); conditions: 1 μM spraying every 24 hours for one week, water control 8.7
How it was run: as §2

Rhizoctonia solani [5] = assay: Control of Rhizoctonia solani disease in tomato (Rs-SI); conditions: 1 μM spraying every 24 hours for one week, water control 96
Botrytis cinerea [6] = assay: Control of Botrytis cinerea disease in tobacco (Bc-Nt); conditions: 1 μM spraying every 24 hours for one week, water control 6.7
How it was run: as §2

Nocardia sp = assay: Control of Nocardia sp disease in tobacco (N-Nt); conditions: 1 μM spraying every 24 hours for one week, water control 58
How it was run: as §2

Radopholus similis = assay: Nematode control, nodules per plant: Radopholus similis; conditions: 1 μM foliar application every 5 days, evaluation 35 days after, control 45
How it was run: as §1

Row | Structure (SMILES) | Rs-Nt: percentage of mortality (Rhizoctonia solani [1]) | Pp-Nt: percentage of mortality (Phytophthora parasitica) | Pc: number of nodules per plant (Pratylenchus coffeae) | Bc-SI: mean of the diameter of the lesion (Botrytis cinerea [2]) | Mi: number of nodules per plant (Meloidogyne incognita) | Titers of the bacterium ([3]; 0.001 μM) | Titers of the bacterium ([3]; 0.01 μM) | Titers of the bacterium ([3]; 1 μM) | Titers of the bacterium ([3]; 5 μM) | Titers of the bacterium ([3]; 10 μM) | As-SI: percentage of leaves with the disease symptoms (Alternaria solani) | Bc-At: mean of the diameter of the lesion (Botrytis cinerea [4]) | Rs-SI: percentage of mortality (Rhizoctonia solani [5]) | Bc-Nt: mean of the diameter of the lesion (Botrytis cinerea [6]) | N-Nt: percentage of mortality (Nocardia sp) | Rs: number of nodules per plant (Radopholus similis)
1 | O=C(c1ccc(OC2CCN(CC(O)CO)CC2)cc1)N1CCCC1 (stereo not shown) [IVI, 3-(4-{4-[(pyrrolidin-1-yl)carbonyl]phenoxy}piperidin-1-yl)propane-1,2-diol] | 0% | 3% | 0 | 0.8 mm | 0 | 456 copies per reaction | 4 copies per reaction | 2 copies per reaction | 56 copies per reaction | 2547 copies per reaction | 7% | 1.2 mm | 1% | 0.3 mm | 0% | 3
2 | CC(O)C(O)CN1CCC(Oc2ccc(C(=O)N3CCCC3)cc2)CC1 (stereo not shown) [IVJ, 1-(4-{4-[(pyrrolidin-1-yl)carbonyl]phenoxy}piperidin-1-yl)butane-2,3-diol] | 2% | 1% | 18 | 1.6 mm | 2 | 435 copies per reaction | 7 copies per reaction | 3 copies per reaction | 45 copies per reaction | 9547 copies per reaction | 1% | 1.1 mm | 3% | 2.0 mm | 1% | 16
3 | O=C(c1ccc(OC2CCN(CC(O)CO)CC2)cc1)N1CCC(n2cccc2)C1 (stereo not shown) [IVK, 3-[4-(4-{[3-(1H-pyrrol-1-yl)pyrrolidin-1-yl]carbonyl}phenoxy)piperidin-1-yl]propane-1,2-diol] | 2% | 1% | 14 | 0.8 mm | 2 | 578 copies per reaction | 5 copies per reaction | 4 copies per reaction | 78 copies per reaction | 8542 copies per reaction | 1% | 0.5 mm | 3% | 0.9 mm | 1% | 14
4 | CC(O)C(O)CN1CCC(Oc2ccc(C(=O)N3CCC(n4cccc4)C3)cc2)CC1 (stereo not shown) [IVL, 1-[4-(4-{[3-(1H-pyrrol-1-yl)pyrrolidin-1-yl]carbonyl}phenoxy)piperidin-1-yl]butane-2,3-diol] | 3% | 2% | 12 | 2.5 mm | 3 | 635 copies per reaction | 1 copies per reaction | 7 copies per reaction | 65 copies per reaction | 9853 copies per reaction | 2% | 1.5 mm | 2% | 1.5 mm | 1% | 2

Source: patent US11013235B2 (priority 2015, dated 2021)
